The record followed here is patent US6569878B1, “Substituted 4-amino-thiazol-2-yl compounds as cyclin-dependent kinase inhibitors” (Agouron Pharmaceuticals Inc., priority 1997, dated 2003).

Molecules are shown by their SMILES.

T1 sequence (P11802 whole entry): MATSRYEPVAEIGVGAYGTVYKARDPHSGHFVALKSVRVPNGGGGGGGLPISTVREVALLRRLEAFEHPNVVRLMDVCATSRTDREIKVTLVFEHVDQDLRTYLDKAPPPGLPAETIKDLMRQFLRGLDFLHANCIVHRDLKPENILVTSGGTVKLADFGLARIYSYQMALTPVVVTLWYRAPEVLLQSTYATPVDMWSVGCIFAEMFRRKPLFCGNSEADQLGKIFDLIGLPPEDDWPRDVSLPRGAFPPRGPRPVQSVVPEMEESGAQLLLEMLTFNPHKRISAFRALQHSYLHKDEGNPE
T1 sequence (P30281 whole entry partner): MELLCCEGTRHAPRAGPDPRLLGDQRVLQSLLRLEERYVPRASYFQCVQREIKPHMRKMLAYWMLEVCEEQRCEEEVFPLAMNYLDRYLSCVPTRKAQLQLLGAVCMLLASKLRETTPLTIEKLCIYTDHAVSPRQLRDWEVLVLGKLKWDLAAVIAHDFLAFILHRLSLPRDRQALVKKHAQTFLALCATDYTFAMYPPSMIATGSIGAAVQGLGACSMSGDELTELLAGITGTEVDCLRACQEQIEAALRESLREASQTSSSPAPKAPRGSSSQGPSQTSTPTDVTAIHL

The first test concerns the target T1, complex of human CDK4 and cyclin D3 (Homo sapiens, UniProt P11802).
T1 construct: made in house; host or cells: insect cells, co-infected with baculovirus
As to the kind of experiment: Inhibition of CDK4/cyclin D retinoblastoma kinase activity (D-type cyclin is D3). The class given is biochemical. As to conditions: superscript a: D-type cyclin is D3; apparent Ki; read-out: Ki CDK 4/D. Here is the method:
Cyclin-dependent kinase activity was measured by quantifying the enzyme-catalyzed, time-dependent incorporation of radioactive phosphate from [^32P]ATP or [^33P]ATP into a protein substrate. […] Reactions were initiated with enzyme, incubated at 30° C., and terminated after 20 minutes by the addition of ethylenediaminetetraacetic acid (EDTA) to 250 mM. […] Radioactivity was quantified by exposing the dried membranes to a phosphorimager.
Apparent Ki values were measured by assaying enzyme activity in the presence of different inhibitor compound concentrations and subtracting the background radioactivity measured in the absence of enzyme. The kinetic parameters (kcat, Km for ATP) were measured for each enzyme under the usual assay conditions by determining the dependence of initial rates on ATP concentration. Inhibition data were fit to an equation for competitive inhibition using Kaleidagraph (Synergy Software), or were fit to an equation for competitive tight-binding inhibition using the software KineTic (BioKin, Ltd.).
Phosphorylated Rb substrate was captured by microfiltration on a nitrocellulose membrane and quantified using a phosphorimager as described above. For measurement of tight-binding inhibitors, the enzyme complex concentration was lowered to 5 nM, and the assay duration was extended to 60 minutes, during which the time-dependence of product formation was linear.
For the molecule `Nc1nc(Nc2ccccc2)sc1C(=O)c1ccc([N+](=O)[O-])cc1` [A(2), (4-Amino-2-phenylamino-thiazol-5-yl)-(4-nitrophenyl)-methanone], the Ki was ~0.3 µM.
With `Nc1nc(Nc2ccc(I)cc2)sc1C(=O)c1ccccc1[N+](=O)[O-]` [A(7), [4-Amino-2-(4-iodo-phenylamino)-thiazol-5-yl]-(2-nitro-phenyl)-methanone], the Ki was determined as 0.31 µM.
Still for that read-out and setting: the result for `Nc1nc(Nc2cccnc2)sc1C(=O)c1ccccc1[N+](=O)[O-]` [A(11), [4-Amino-2-(pyridin-3-ylamino)-thiazol-5-yl]-(2-nitro-phenyl)-methanone] reads 0.13 µM; that for `COc1ccc(C(=O)c2sc(Nc3ccc(C)cc3)nc2N)c(OC)c1` [A(13), [4-Amino-2-(p-tolylamino)-thiazol-5-yl]-(2,4-dimethoxyphenyl)-methanone], 0.25 µM; that for `Cc1ccc(Nc2nc(N)c(C(=O)c3ccc(C)cc3C)s2)cc1` [A(14), [4-Amino-2-(p-tolylamino)-thiazol-5-yl]-(2,4-dimethylphenyl)-methanone], 0.18 µM.
The same measure, in the same setting: the figure for `COc1ccc(C(=O)c2sc(Nc3ccc(OCc4ccccc4)cc3)nc2N)cc1` [C(2), [4-Amino-2-(4-benzyloxy-phenylamino)-thiazol-5-yl]-(4-methoxy-phenyl)-methanone] is > 5 µM; for `Cc1c(C(=O)c2sc(Nc3ccc(N(C)C)cc3)nc2N)sc2ccccc12` [C(7), [4-Amino-2-((4-dimethylaminophenyl)amino)-thiazol-5-yl]-(3-methyl-benzo[b]thiophen-2-yl)-methanone] it is 0.51 µM; for `Cc1c(C(=O)c2sc(Nc3ccc(N(C)C)cc3)nc2N)sc2ccc(Cl)cc12` [C(9)] it is 0.74 µM.
The same measure, in the same setting: the figure for `Cc1c(C(=O)c2sc(Nc3ccc4nc[nH]c4c3)nc2N)sc2ccc(Cl)cc12` [C(10), [4-Amino-2-(1H-benzoimidazol-6-yl-amino)-thiazol-5-yl]-(5-chloro-3-methyl-benzo[b]thiophen-2-yl)-methanone] is 0.68 µM; for `Nc1nc(Nc2ccc3c(c2)OCO3)sc1C(=O)c1ccccc1[N+](=O)[O-]` [C(11), [4-Amino-2-(benzo[1,3]dioxol-5-yl-amino)-thiazol-5-yl]-(2-nitro-phenyl)-methanone] it is 0.13 µM; for `Nc1nc(Nc2ccc([N+](=O)[O-])cc2)sc1C(=O)c1ccccc1[N+](=O)[O-]` [C(13), [4-Amino-2-(4-nitro-phenylamino)-thiazol-5-yl]-(2-nitro-phenyl)-methanone] it is 0.051 µM.
Consider `Nc1nc(NC2CCCCC2)sc1C(=O)c1ccccc1[N+](=O)[O-]` [C(14), (4-Amino-2-cyclohexylamino-thiazol-5-yl)-(2-nitro-phenyl)-methanone], for which the Ki was 0.057 µM.
On to `CC(C)c1ccc(Nc2nc(N)c(C(=O)c3ccccc3[N+](=O)[O-])s2)cc1` [C(15), [4-Amino-2-(4-isopropyl-phenylamino)-thiazol-5-yl]-(2-nitro-phenyl)-methanone], for which the Ki came to 0.057 µM.
Same read-out and setting: the result for `Nc1nc(NCCc2ccc(Cl)cc2)sc1C(=O)c1ccccc1[N+](=O)[O-]` [C(16), {4-Amino-2-[2-(4-chloro-phenyl)-ethylamino]-thiazol-5-yl}-(2-nitro-phenyl)-methanone] reads 0.17 µM.
The same measure, in the same setting: the result for `CCN(CC)c1ccc(Nc2nc(N)c(C(=O)c3ccccc3[N+](=O)[O-])s2)cc1` [C(17), [4-Amino-2-(4-diethylamino-phenylamino)-thiazol-5-yl]-(2-nitro-phenyl)-methanone] reads 0.072 µM; that for `CCN(CC)c1ccc(Nc2nc(N)c(C(=O)c3ccc([N+](=O)[O-])cc3)s2)cc1` [C(18), [4-Amino-2-(4-diethylamino-phenylamino)-thiazol-5-yl]-(4-nitro-phenyl)-methanone], 12.9 µM.
On the same count and under the same terms, the figure for `N#Cc1cccc(Nc2nc(N)c(C(=O)c3ccccc3[N+](=O)[O-])s2)c1` [C(22)] is 0.067 µM; for `COCCCNc1nc(N)c(C(=O)c2ccccc2[N+](=O)[O-])s1` [C(23), [4-Amino-2-(3-methoxy-propylamino)-thiazol-5-yl]-(2-nitro-phenyl)-methanone] it is 0.33 µM.
As to `Nc1nc(Nc2ccc(Sc3ncc(C(F)(F)F)cc3Cl)cc2)sc1C(=O)c1ccccc1[N+](=O)[O-]` [C(25), {4-Amino-2-[4-(2-chloro-5-trifluoromethyl-pyridin-2-yl sulfanyl)-phenylamino]-thiazol-5-yl}-(2-nitro-phenyl)-methanone], the Ki turned out to be 1.3 µM.
The same measure, in the same setting: the result for `COC(=O)c1cccc(Nc2nc(N)c(C(=O)c3ccccc3OC)s2)c1` [C(26), Methyl 3-[4-Amino-5-(2-methoxy-benzoyl)-thiazol-2-ylamino]-benzoate] reads 0.33 µM.
On the same count and under the same terms, the figure for `COc1ccccc1C(=O)c1sc(NCCc2ccc(Cl)cc2)nc1N` [C(27), {4-Amino-2-[2-(4-chloro-phenyl)-ethylamino]-thiazol-5-yl}-(2-methoxy-phenyl)-methanone] is 1.02 µM; for `Nc1nc(Nc2cccnc2)sc1C(=O)c1ccc(Cl)cc1Cl` [C(28), [4-Amino-2-(pyridin-3-ylamino)-thiazol-5-yl]-(2,4-dichloro-phenyl)-methanone] it is 0.24 µM; for `COc1ccccc1C(=O)c1sc(Nc2cccnc2)nc1N` [C(29), [4-Amino-2-(pyridin-3-ylamino)-thiazol-5-yl]-(2-methoxy-phenyl)-methanone] it is 0.357 µM.
Regarding `Nc1nc(Nc2cccnc2)sc1C(=O)c1ccc2ccccc2c1` [C(30), [4-Amino-2-(pyridin-3-ylamino)-thiazol-5-yl]-naphthalen-2-yl-methanone], the Ki stood at 1.4 µM.
The same measure, in the same setting: the figure for `COc1ccccc1C(=O)c1sc(Nc2ccc3nc[nH]c3c2)nc1N` [C(32), [4-Amino-2-(1H-benzoimidazol-6-ylamino)-thiazol-5-yl]-(2-methoxy-phenyl)-methanone] is 0.094 µM.
Still for that read-out and setting: the figure for `COc1ccc(Nc2nc(N)c(C(=O)c3[nH]cnc3C)s2)cc1` [C(40), [4-Amino-2-(4-methoxy-phenylamino)-thiazol-5-yl]-(4-methyl-1H-imidazol-5-yl)-methanone] is 3.84 µM; for `Cn1cccc1C(=O)c1sc(Nc2ccc3nc[nH]c3c2)nc1N` [C(43), [4-Amino-2-(1H-benzimidazol-5-ylamino)-thiazol-5-yl]-(1-methyl-1H-pyrrol-2-yl)-methanone] it is 0.315 µM; for `CC(=O)c1ccc(Nc2nc(N)c(C(=O)c3sccc3C)s2)cc1` [C(44), 1-{4-[4-Amino-5-(3-methyl-thiophene-2-carbonyl)-thiazol-2-ylamino]-phenyl}-ethanone] it is ~0.128 µM.
Regarding `Cc1c(C(=O)c2sc(Nc3ccc(N4CCOCC4)cc3)nc2N)ncn1C` [C(77), [4-Amino-2-(4-morpholin-4-yl-phenylamino)-thiazol-5-yl]-(1,5-dimethyl-1H-imidazol-4-yl)-methanone], the Ki was found to be 3 µM.
On to `Nc1ccc(C(=O)c2sc(Nc3ccccc3)nc2N)cc1` [D(2), (4-Amino-phenyl)-(4-amino-2-phenylamino-thiazol-5-yl)-methanone], for which the Ki is > 5 µM.
Same read-out and setting: the figure for `CN(C)c1ccc(Nc2nc(N)c(C(=O)c3ccccc3N)s2)cc1` [D(3), [4-Amino-2-(4-dimethylamino-phenylamino)-thiazol-5-yl]-(2-amino-phenyl)-methanone] is 0.38 µM; for `Nc1ccc(Nc2nc(N)c(C(=O)c3ccccc3)s2)cc1` [D(4), [4-Amino-2-(4-amino-phenylamino)-thiazol-5-yl]-phenyl-methanone] it is 0.8 µM.
Same read-out and setting: the result for `Nc1nc(Nc2ccc(S(N)(=O)=O)cc2)sc1C(=O)c1ccc(C(=O)O)cc1` [E(2), 4-[4-Amino-2-(4-sulfamoyl-phenylamino)-thiazole-5-carbonyl]-benzoic Acid] reads 1.17 µM; that for `CN(C)c1ccc(Nc2nc(N)c(C(=O)c3ccc(F)cc3)s2)cc1` [I(7)], ~1.5 µM.
Consider `Nc1nc(NC2CCCCC2)sc1C(=O)c1ccc(F)cc1` [I(8)], for which the Ki came out at 4.3 µM.
Consider `Nc1nc(NC2CCCCC2)sc1C(=O)c1ccc([N+](=O)[O-])cc1` [I(9)], for which the Ki came out at 2.5 µM.
Same read-out and setting: the result for `Nc1nc(Nc2ccccc2)sc1C(=O)c1ccc(F)cc1` [I(11)] reads 0.52 µM; that for `COC(=O)c1cccc(Nc2nc(N)c(C(=O)c3cccc(OC)c3)s2)c1` [I(13)], 2.4 µM.

Still in this test, the particulars now being: superscript a: D-type cyclin is D3; μM; read-out: Ki CDK 4/D.
Regarding `CCC(Nc1nc(N)c(C(=O)c2ccc([N+](=O)[O-])cc2)s1)C(=O)OC` (stereo in doubt) [C(6), Methyl 2(S)-[4-Amino-5-(4-nitro-benzoyl)-thiazol-2-ylamino]-butyrate], the Ki is > 10 µM.
On the same count and under the same terms, the result for `Nc1nc(Nc2ccc([N+](=O)[O-])cc2)sc1C(=O)c1ccccc1` [A(8), [4-Amino-2-(4-nitro-phenylamino)-thiazol-5-yl]-phenyl-methanone] reads > 25 µM; that for `Nc1nc(Nc2ccc(S(N)(=O)=O)cc2)sc1C(=O)c1ccc(OC(=O)c2ccccc2)cc1` [C(39)], > 100 µM; that for `COc1ccc(CNc2nc(N)c(C(=O)c3cc(C)sc3C)s2)cc1` [C(68), [4-Amino-2-(4-methoxy-benzylamino)-thiazol-5-yl]-(2,5-dimethylthiophen-3-yl)-methanone], > 30 µM.
The same measure, in the same setting: the result for `COc1ccc(C(=O)c2sc(Nc3ccccc3)nc2N)cc1` [I(10)] reads > 20 µM.
On the same count and under the same terms, the figure for `COC(=O)c1cccc(Nc2nc(N)c(C(=O)c3ccc(Br)cc3)s2)c1` [I(14)] is > 50 µM.
